Source: patent publication US20230085307A1, “PYRIDAZINONE COMPOUND AND HERBICIDE” (NISSAN CHEMICAL CORPORATION, priority 2019, published 2023)

Legend:
persian speedwell [1] = assay: Test Example 4: herbicidal effect by soil treatment (Table 19, symbol R); format: in vivo, Persian speedwell (Veronica persica); settings: amount of applied herbicide 320 g/ha
Procedure, shortened: (§1)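 Emulsion of test compound, water-diluted to predetermined amount, sprayed on soil after sowing (seed depth ~1.5 cm, sterilized diluvial soil). Greenhouse, 25–30° C. Effect graded at three weeks post-spray.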

wild oat [2] = assay: Test Example 5: herbicidal effect by foliage application, plastic box (Table 20, symbol I); format: in vivo, wild oat (Avena fatua); settings: foliage application, 320 g/ha, three weeks after application
Procedure, shortened: (§2)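 Post-emergence foliar test in sterilized diluvial soil. Compound applied as water-diluted emulsion at a predetermined rate to 14-day-old plants; evaluation at three weeks.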

lambsquarters [3] = assay: Test Example 4: herbicidal effect by soil treatment (Table 19, symbol O); format: in vivo, lambsquarters (Chenopodium album); settings: amount of applied herbicide 320 g/ha
Procedure, shortened: as §1

barnyard grass [4] = assay: Test Example 3: herbicidal effect by foliage application, Wagner pot (Table 18, symbol H); format: in vivo, barnyard grass (Echinochloa crus-galli); settings: 320 g/ha
Procedure, shortened: (§3)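 Plants were sown in alluvial soil held under 0.1–0.5 cm standing water and grown 14 days in a greenhouse at 25–30 °C. An emulsifiable formulation, water-diluted to the set dose, was then sprayed onto the foliage, and effects were scored three weeks later using previously defined criteria.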

rice flat sedge = assay: Test Example 3: herbicidal effect by foliage application, Wagner pot (Table 18, symbol E); format: in vivo, rice flat sedge (Cyperus iria); settings: 320 g/ha
Procedure, shortened: as §3

lambsquarters [5] = assay: Test Example 5: herbicidal effect by foliage application, plastic box (Table 20, symbol O); format: in vivo, lambsquarters (Chenopodium album); settings: foliage application, 320 g/ha, three weeks after application
Procedure, shortened: as §2

velvetleaf [6] = assay: Test Example 4: herbicidal effect by soil treatment (Table 19, symbol M); format: in vivo, velvetleaf (Abutilon theophrasti); settings: amount of applied herbicide 320 g/ha
Procedure, shortened: as §1

persian speedwell [7] = assay: Test Example 5: herbicidal effect by foliage application, plastic box (Table 20, symbol R); format: in vivo, Persian speedwell (Veronica persica); settings: foliage application, 320 g/ha, three weeks after application
Procedure, shortened: as §2

Italian ryegrass [8] = assay: Test Example 4: herbicidal effect by soil treatment (Table 19, symbol K); format: in vivo, Italian ryegrass (Lolium multiflorum); settings: amount of applied herbicide 320 g/ha
Procedure, shortened: as §1

southern crabgrass [9] = assay: Test Example 4: herbicidal effect by soil treatment (Table 19, symbol F); format: in vivo, southern crabgrass (Digitaria ciliaris); settings: amount of applied herbicide 320 g/ha
Procedure, shortened: as §1

blackgrass [10] = assay: Test Example 4: herbicidal effect by soil treatment (Table 19, symbol J); format: in vivo, blackgrass (Alopecurus myosuroides); settings: amount of applied herbicide 320 g/ha
Procedure, shortened: as §1

green foxtail [11] = assay: Test Example 4: herbicidal effect by soil treatment (Table 19, symbol G); format: in vivo, green foxtail (Setaria viridis); settings: amount of applied herbicide 320 g/ha
Procedure, shortened: as §1

Italian ryegrass [12] = assay: Test Example 5: herbicidal effect by foliage application, plastic box (Table 20, symbol K); format: in vivo, Italian ryegrass (Lolium multiflorum); settings: foliage application, 320 g/ha, three weeks after application
Procedure, shortened: as §2

southern crabgrass [13] = assay: Test Example 5: herbicidal effect by foliage application, plastic box (Table 20, symbol F); format: in vivo, southern crabgrass (Digitaria ciliaris); settings: foliage application, 320 g/ha, three weeks after application
Procedure, shortened: as §2

wild oat [14] = assay: Test Example 4: herbicidal effect by soil treatment (Table 19, symbol I); format: in vivo, wild oat (Avena fatua); settings: amount of applied herbicide 320 g/ha
Procedure, shortened: as §1

green foxtail [15] = assay: Test Example 5: herbicidal effect by foliage application, plastic box (Table 20, symbol G); format: in vivo, green foxtail (Setaria viridis); settings: foliage application, 320 g/ha, three weeks after application
Procedure, shortened: as §2

velvetleaf [16] = assay: Test Example 5: herbicidal effect by foliage application, plastic box (Table 20, symbol M); format: in vivo, velvetleaf (Abutilon theophrasti); settings: foliage application, 320 g/ha, three weeks after application
Procedure, shortened: as §2

Chinese sprangletop = assay: Test Example 3: herbicidal effect by foliage application, Wagner pot (Table 18, symbol D); format: in vivo, chinese sprangletop (Leptochloa chinensis); settings: 320 g/ha
Procedure, shortened: as §3

barnyard grass [17] = assay: Test Example 5: herbicidal effect by foliage application, plastic box (Table 20, symbol H); format: in vivo, barnyard grass (Echinochloa crus-galli); settings: foliage application, 320 g/ha, three weeks after application
Procedure, shortened: as §2

barnyard grass [18] = assay: Test Example 4: herbicidal effect by soil treatment (Table 19, symbol H); format: in vivo, barnyard grass (Echinochloa crus-galli); settings: amount of applied herbicide 320 g/ha
Procedure, shortened: as §1

windgrass [19] = assay: Test Example 4: herbicidal effect by soil treatment (Table 19, symbol L); format: in vivo, windgrass (Apera spica-venti); settings: amount of applied herbicide 320 g/ha
Procedure, shortened: as §1

redroot pigweed [20] = assay: Test Example 5: herbicidal effect by foliage application, plastic box (Table 20, symbol N); format: in vivo, redroot pigweed (Amaranthus retroflexus); settings: foliage application, 320 g/ha, three weeks after application
Procedure, shortened: as §2

windgrass [21] = assay: Test Example 5: herbicidal effect by foliage application, plastic box (Table 20, symbol L); format: in vivo, windgrass (Apera spica-venti); settings: foliage application, 320 g/ha, three weeks after application
Procedure, shortened: as §2

blackgrass [22] = assay: Test Example 5: herbicidal effect by foliage application, plastic box (Table 20, symbol J); format: in vivo, blackgrass (Alopecurus myosuroides); settings: foliage application, 320 g/ha, three weeks after application
Procedure, shortened: as §2

redroot pigweed [23] = assay: Test Example 4: herbicidal effect by soil treatment (Table 19, symbol N); format: in vivo, redroot pigweed (Amaranthus retroflexus); settings: amount of applied herbicide 320 g/ha
Procedure, shortened: as §1

chickweed [24] = assay: Test Example 5: herbicidal effect by foliage application, plastic box (Table 20, symbol P); format: in vivo, common chickweed (Stellaria media); settings: foliage application, 320 g/ha, three weeks after application
Procedure, shortened: as §2

chickweed [25] = assay: Test Example 4: herbicidal effect by soil treatment (Table 19, symbol P); format: in vivo, common chickweed (Stellaria media); settings: amount of applied herbicide 320 g/ha
Procedure, shortened: as §1

CCOc1ccc(-c2sc3ccccc3c2-c2c(O)c(C)nn(C)c2=O)cn1 [1-076]
herbicidal effect rating, R: persian speedwell (persian speedwell [1]): 5 (Herbicidal rate of 90% or more (almost completely withered))
herbicidal effect grade, I: wild oat (wild oat [2]): 0 (Herbicidal rate of 5% or less (almost no effect))
herbicidal effect rating, O: lambsquarters (lambsquarters [3]): 0 (Herbicidal rate of 5% or less (almost no effect))
herbicidal effect on H (barnyard grass), rating 0-5 (barnyard grass [4]): 1 (Herbicidal rate of 5% or more and less than 20%)
herbicidal effect on E (rice flat sedge), rating 0-5 (rice flat sedge): 5 (Herbicidal rate of 90% or more (almost completely withered))
herbicidal effect grade, O: lambsquarters (lambsquarters [5]): 1 (Herbicidal rate of 5% or more and less than 20%)
herbicidal effect rating, M: velvetleaf (velvetleaf [6]): 0 (Herbicidal rate of 5% or less (almost no effect))
herbicidal effect grade, R: persian speedwell (persian speedwell [7]): 5 (Herbicidal rate of 90% or more (almost completely withered))
herbicidal effect rating, K: Italian ryegrass (Italian ryegrass [8]): 0 (Herbicidal rate of 5% or less (almost no effect))
herbicidal effect rating, F: southern crabgrass (southern crabgrass [9]): 0 (Herbicidal rate of 5% or less (almost no effect))
herbicidal effect rating, J: blackgrass (blackgrass [10]): 0 (Herbicidal rate of 5% or less (almost no effect))
herbicidal effect rating, G: green foxtail (green foxtail [11]): 1 (Herbicidal rate of 5% or more and less than 20%)
herbicidal effect grade, K: Italian ryegrass (Italian ryegrass [12]): 1 (Herbicidal rate of 5% or more and less than 20%)
herbicidal effect grade, F: southern crabgrass (southern crabgrass [13]): 0 (Herbicidal rate of 5% or less (almost no effect))
herbicidal effect rating, I: wild oat (wild oat [14]): 0 (Herbicidal rate of 5% or less (almost no effect))
herbicidal effect grade, G: green foxtail (green foxtail [15]): 0 (Herbicidal rate of 5% or less (almost no effect))
herbicidal effect grade, M: velvetleaf (velvetleaf [16]): 3 (Herbicidal rate of 40% or more and less than 70%)
herbicidal effect on D (Chinese sprangletop), rating 0-5 (Chinese sprangletop): 0 (Herbicidal rate of 5% or less (almost no effect))
herbicidal effect grade, H: barnyard grass (barnyard grass [17]): 0 (Herbicidal rate of 5% or less (almost no effect))
herbicidal effect rating, H: barnyard grass (barnyard grass [18]): 0 (Herbicidal rate of 5% or less (almost no effect))
herbicidal effect rating, L: windgrass (windgrass [19]): 0 (Herbicidal rate of 5% or less (almost no effect))
herbicidal effect grade, N: redroot pigweed (redroot pigweed [20]): 2 (Herbicidal rate of 20% or more and less than 40%)
herbicidal effect grade, L: windgrass (windgrass [21]): 0 (Herbicidal rate of 5% or less (almost no effect))
herbicidal effect grade, J: blackgrass (blackgrass [22]): 0 (Herbicidal rate of 5% or less (almost no effect))
herbicidal effect rating, N: redroot pigweed (redroot pigweed [23]): 0 (Herbicidal rate of 5% or less (almost no effect))
herbicidal effect grade, P: chickweed (chickweed [24]): 5 (Herbicidal rate of 90% or more (almost completely withered))
herbicidal effect rating, P: chickweed (chickweed [25]): 5 (Herbicidal rate of 90% or more (almost completely withered))
